# Measured values from patent EP4624465A1, “COMPOUND SERVING AS DDR1 KINASE INHIBITOR, AND MEDICINE” (Nippon Shinyaku Co., Ltd., priority 2022, dated 2024).
# pIC50: −log10 of the molar value.
# What was measured:
# DDR1 kinase [1] = biological target: T1, DDR1 kinase (Homo sapiens, UniProt Q08345); assay: Evaluation of DDR1 kinase inhibition in DDR1-expressing U2OS cells (type I collagen stimulation, PathHunter detection); assay type: cell-based; design: host or cells: U2OS; details: type I collagen 50 µg/mL stimulation, duplicate, read-out: DDR-1 IC50
# Target sequence in this assay (Q08345 19-913): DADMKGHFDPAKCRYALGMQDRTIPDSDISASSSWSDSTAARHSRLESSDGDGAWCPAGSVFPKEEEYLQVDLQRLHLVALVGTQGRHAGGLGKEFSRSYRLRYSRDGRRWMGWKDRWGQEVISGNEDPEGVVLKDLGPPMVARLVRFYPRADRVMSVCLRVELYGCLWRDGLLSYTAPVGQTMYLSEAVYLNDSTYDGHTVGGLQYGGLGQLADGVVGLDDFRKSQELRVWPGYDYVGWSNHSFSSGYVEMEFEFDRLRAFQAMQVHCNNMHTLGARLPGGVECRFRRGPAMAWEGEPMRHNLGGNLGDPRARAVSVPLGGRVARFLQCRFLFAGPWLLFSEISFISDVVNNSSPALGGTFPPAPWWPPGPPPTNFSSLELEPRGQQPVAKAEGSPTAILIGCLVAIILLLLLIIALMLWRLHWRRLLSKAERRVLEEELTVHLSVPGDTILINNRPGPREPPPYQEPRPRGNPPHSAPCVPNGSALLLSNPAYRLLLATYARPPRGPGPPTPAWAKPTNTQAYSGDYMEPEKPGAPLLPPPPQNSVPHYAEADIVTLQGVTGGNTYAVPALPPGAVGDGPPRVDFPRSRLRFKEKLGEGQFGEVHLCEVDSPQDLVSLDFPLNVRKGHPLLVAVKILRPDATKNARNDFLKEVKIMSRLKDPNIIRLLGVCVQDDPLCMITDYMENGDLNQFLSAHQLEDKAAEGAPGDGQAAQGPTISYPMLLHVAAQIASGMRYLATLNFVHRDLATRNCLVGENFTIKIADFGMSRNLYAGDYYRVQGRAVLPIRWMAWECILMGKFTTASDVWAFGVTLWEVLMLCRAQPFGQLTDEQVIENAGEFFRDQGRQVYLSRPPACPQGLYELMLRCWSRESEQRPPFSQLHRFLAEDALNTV
# DDR1 kinase [2] = biological target: T1, DDR1 kinase; assay: Evaluation of DDR1 kinase inhibition (LANCE Ultra TR-FRET kinase assay); assay type: biochemical; design: purchased Carna Biosciences 08-113; details: DDR1 protein 0.5 nM, LANCE Ultra ULight-poly GAT substrate, 2 hours at room temperature, duplicate; read-out: DDR-1 IC50
# Target sequence in this assay (Q08345 19-876 isoform Q08345-2 limits assumed): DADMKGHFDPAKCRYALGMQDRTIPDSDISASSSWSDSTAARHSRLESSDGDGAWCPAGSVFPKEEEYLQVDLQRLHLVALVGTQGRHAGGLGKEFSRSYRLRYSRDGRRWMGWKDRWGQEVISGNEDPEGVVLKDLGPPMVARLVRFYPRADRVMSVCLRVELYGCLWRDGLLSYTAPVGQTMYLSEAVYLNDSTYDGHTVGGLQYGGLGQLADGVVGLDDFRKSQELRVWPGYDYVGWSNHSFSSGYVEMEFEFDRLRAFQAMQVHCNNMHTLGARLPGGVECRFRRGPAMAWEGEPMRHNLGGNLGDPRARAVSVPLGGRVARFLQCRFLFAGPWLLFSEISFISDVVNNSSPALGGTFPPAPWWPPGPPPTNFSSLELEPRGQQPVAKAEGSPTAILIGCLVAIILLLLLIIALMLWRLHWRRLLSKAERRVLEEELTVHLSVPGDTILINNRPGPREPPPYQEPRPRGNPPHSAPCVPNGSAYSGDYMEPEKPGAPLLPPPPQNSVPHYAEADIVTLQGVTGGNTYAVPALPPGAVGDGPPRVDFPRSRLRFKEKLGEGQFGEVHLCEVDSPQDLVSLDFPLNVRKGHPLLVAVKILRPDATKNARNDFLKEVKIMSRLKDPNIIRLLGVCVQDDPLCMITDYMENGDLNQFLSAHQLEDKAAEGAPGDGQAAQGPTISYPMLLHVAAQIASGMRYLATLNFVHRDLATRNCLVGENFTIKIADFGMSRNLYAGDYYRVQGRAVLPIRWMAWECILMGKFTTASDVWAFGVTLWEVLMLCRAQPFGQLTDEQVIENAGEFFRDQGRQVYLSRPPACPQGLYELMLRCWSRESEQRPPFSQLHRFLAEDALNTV
SMILES,pIC50 (DDR1 kinase [1]),pIC50 (DDR1 kinase [2])
"Cc1ccc2c(n1)c(C1CN(C(=O)c3cc(N)ncc3F)C1)nn2CC(=O)N1CCOC(C(F)(F)F)C1 [Compound E-185, 2-{3-[1-(2-amino-5-fluoropyridine-4-carbonyl)azetidin-3-yl]-5-methyl-1H-pyrazolo(4,3-blpyridin-1-yl}-1-[{(2R)-2-(trifluoromethyl)morpholin-4-yl]ethan-1-one p-toluenesulfonate]",5.48,7.66
"Cc1ccc2c(n1)c(C1CN(C(=O)c3cc(N)ncc3F)C1)nn2CC(=O)N1CCOCC1(C)C [Compound E-186, 2-{3-[1-(2-amino-5-fluoropyridine-4-carbonyl)azetidin-3-yl]-5-methyl-1H-pyrazolo[4,3-b]pyridin-1-yl}-1-(3,3-dimethylmorpholin-4-yl)ethan-1-one p-toluenesulfonate]",6.16,7.64
"CC1(C)COCCN1C(=O)Cn1nc(C2CN(C(=O)c3ccnc(N)c3)C2)c2ccccc21 [Compound E-188, 2-{3-[1-(2-aminopyridine-4-carbonyl)azetidin-3-yl]-1H-indazol-1-yl}-1-(3,3-dimethylmorpholin-4-yl)ethan-1-one]",7.05,8.10
"CC(C)(C)NC(=O)Cn1nc(C2CN(C(=O)c3ccnc(N)c3)C2)c2c(F)cc(F)cc21 [Compound E-189, 2-(3-[1-(2-aminopyridine-4-carbonyl)azetidin-3-yl]-4,6-difluoro-1H-indazol-1-yl}-N-tert-butylacetamide]",6.34,7.96
"Nc1nccc(C(=O)N2CC(c3nn(CC(=O)N4CCO[C@@H](C(F)(F)F)C4)c4ccccc34)C2)c1F [Compound E-194, 2-{3-[1-(2-amino-3-fluoropyridine-4-carbonyl)azetidin-3-yl]-1H-indazol-1-y1}-1-[(2R)-2-(trifluoromethyl)morpholin-4-yl]ethan-1-one]",6.43,8.32
"Nc1nccc(C(=O)N2CC(c3nn(CC(=O)N4CCC[C@H]4C(F)(F)F)c4ccccc34)C2)c1F [Compound E-196, 2-{3-[1-(2-amino-3-fluoropyridine-4-carbonyl)azetidin-3-yl]-1H-indazol-1-yl}-1-[(28)-2-(trifluoromethyl)pyrrolidin-1-yl]ethan-1-one]",7.37,8.55
"Cc1nc(N)sc1C(=O)N1CC(c2nn(CC(=O)N3CCC[C@H]3C(F)(F)F)c3ccccc23)C1 [Compound E-197, 2-(3-[1-(2-amino-4-methyl-1,3-thiazole-5-carbonyl)azetidin-3-yl]-1H-indazol-1-yl}-1-[(2S)-2-(trifluoromethyl)pyrrolidin-1-yl]ethan-1-one]",6.82,8.64
"Nc1cc(C(=O)N2CC(c3nn(CC(=O)N4CCC[C@H]4C(F)(F)F)c4ccc(Cl)cc34)C2)c(F)cn1 [Compound E-206, 2-{3-[1-(2-amino-5-fluoropyridine-4-carbonyl)azetidin-3-yl}-5-chloro-1H-indazol-1-yl}-1-[(2S)-2-(trifluoromethyl)pyrrolidin-1-yl]ethan-1-one]",8.22,8.80
"Nc1cc(C(=O)N2CC(c3nn(CC(=O)NCC(F)(F)F)c4ccccc34)C2)ccn1 [Compound E-211, 2-{3-[1-(2-aminopyridine-4-carbonyl)azetidin-3-yl]-1H-indazol-1-yl}-N-(2,2,2-trifluoroethyl)acetamide]",6.54,7.57
"Nc1cc(C(=O)N2CC(c3nn(CC(=O)NC4CC(F)(F)C4)c4ccccc34)C2)ccn1 [Compound E-214, 2-{3-[1-(2-aminopyridine-4-carbonyl)azetidin-3-yl]-1H-indazol-1-yl}-N-(3,3-difluorocyclobutyl)acetamide]",6.42,8.00
Nc1cc(C(=O)N2CC(c3nn(Cc4nc(C(F)(F)F)no4)c4ccccc34)C2)ccn1 [Compound E-218],7.13,7.89
"Nc1cc(C(=O)N2CC(c3nn(CC(=O)NC4CCCC4(F)F)c4ccccc34)C2)ccn1 (stereo not shown) [Compound E-225, 2-{3-[1-(2-aminopyridine-4-carbonyl)azetidin-3-yl}-1H-indazol-1-yl}-N-(2,2-difluorocyclopentyl)acetamide]",6.35,7.77
"COC[C@@H]1CCCN1C(=O)Cn1nc(C2CN(C(=O)c3ccnc(N)c3)C2)c2ccccc21 [Compound E-228, 2-{3-[1-(2-aminopyridine-4-carbonyl)azetidin-3-yl}-1H-indazol-1-yl}-1-[(2S)-2-(methoxymethyl)pyrrolidin-1-yl]ethan-1-one]",7.02,8.05
"CN(CC1CC1)C(=O)Cn1nc(C2CN(C(=O)c3ccnc(N)c3)C2)c2ccccc21 [Compound E-229, 2-{3-[1-(2-aminopyridine-4-carbonyl)azetidin-3-yl]-1H-indazol-1-yl}-N-(cyclopropylmethyl)-N-methylacetamide]",7.09,8.22

# Further lines, results first:
pIC50 (DDR1 kinase [1]),pIC50 (DDR1 kinase [2]),SMILES
6.92,8.32,N#C[C@@H]1CCCN1C(=O)Cn1nc(C2CN(C(=O)c3cc(N)ncc3F)C2)c2ccccc21 [Compound E-236]
7.47,8.42,"Nc1cc(C(=O)N2CC(c3nn(CC(=O)N4CC(F)(F)C[C@H]4CF)c4ccccc34)C2)c(F)cn1 [Compound E-237, 2-{3-[1-(2-amino-5-fluoropyridine-4-carbonyl)azetidin-3-yl]-1H-indazol-1-yl]-1-[(2S)-4,4-difluoro-2-(fluoromethyl)pyrrolidin-1-yl]ethan-1-one]"
6.85,8.30,"CN(CC(F)(F)F)C(=O)Cn1nc(C2CN(C(=O)c3cc(N)ncc3F)C2)c2ccccc21 [Compound E-240, 2-{3-[1-(2-amino-5-fluoropyridine-4-carbonyl)azetidin-3-yl}-1H-indazol-1-yl}-N-methyl-N-(2,2,2-trifluoroethyl)acetamide]"
6.13,7.52,"Nc1cc(C(=O)N2CC(c3nn(CC(=O)NCC(F)F)c4cccc(F)c34)C2)ccn1 [Compound E-242, 2-{3-[1-(2-aminopyridine-4-carbonyl)azetidin-3-yl]-4-fluoro-1H-indazol-1-yl}-N-(2,2-difluoroethyl)acetamide]"
6.38,7.39,"N#CC1(NC(=O)Cn2nc(C3CN(C(=O)c4cc(N)ncc4F)C3)c3ccccc32)CC1 [Compound E-244, 2-{3-{1-(2-amino-5-fluoropyridine-4-carbonyl)azetidin-3-yl]-1H-indazol-1-yl}-N-(1-cyanocyclopropyl)acetamide]"
6.52,7.33,"Cn1nccc1NC(=O)Cn1nc(C2CN(C(=O)c3cc(N)ncc3F)C2)c2ccccc21 [Compound E-247, 2-{3-[1-(2-amino-5-fluoropyridine-4-carbonyl)azetidin-8-yl]-1H-indazol-1-yl}-N-(1-methyl-1H-pyrazol-5-yl)acetamide]"
6.29,7.96,"Nc1cc(C(=O)N2CC(c3nn(CC(=O)NC4CC4(F)F)c4ccccc34)C2)c(F)cn1 (stereo not shown) [Compound E-248, 2-{3-[1-(2-amino-5-fluoropyridine-4-carbonyl)azetidin-3-yl]-1H-indazol-1-yl}-N-(2,2-difluorocyclopropyl)acetamide]"
7.77,8.70,"CN(C(=O)Cn1nc(C2CN(C(=O)c3cc(N)ncc3F)C2)c2ccccc21)C1CC(F)(F)C1 [Compound E-250, 2-{3-[1-(2-amino-5-fluoropyridine-4-carbonyl)azetidin-3-yl]-1H-indazol-1-yl}-N-(3,3-difluorocyclobutyl)-N-methylacetamide]"
7.72,8.60,"Nc1cc(C(=O)N2CC(c3nn(CC(=O)N(CC(F)(F)F)C4CC4)c4ccccc34)C2)c(F)cn1 [Compound E-251, 2-{3-[1-(2-amino-5-fluoropyridine-4-carbonyl)azetidin-3-yl]-1H-indazol-1-yl}-N-cyclopropyl-N-(2,2,2-trifluoroethyl)acetamide]"
6.77,8.02,"CC(C)N(C)C(=O)Cn1nc(C2CN(C(=O)c3cc(N)ncc3F)C2)c2ccccc21 [Compound E-253, 2-{3-[1-(2-amino-5-fluoropyridine-4-carbonyl)azetidin-3-yl]-1H. indazol-1-yl}-N-methyl-N-(propan-2-yl)acetamide]"
6.41,7.68,"CN(C(=O)Cn1nc(C2CN(C(=O)c3cc(N)ncc3F)C2)c2ccccc21)C1COC1 [Compound E-254, 2-{3-{1-(2-amino-5-fluoropyridine-4-carbonyl)azetidin-3-yl]-1H-indazol-1-yl}-N-methyl-N-(oxetan-3-yl)acetamide]"
6.74,7.66,"CN(C(=O)Cn1nc(C2CN(C(=O)c3cc(N)ncc3F)C2)c2ccccc21)C1CCOCC1 [Compound E-255, 2-{8-[1-(2-amino-5-fluoropyridine-4-carbonyl)azetidin-8-yl]-1H-indazol-1-yl}-N-methyl-N-(oxan-4-yl)acetamide]"
7.38,7.89,"Nc1cc(C(=O)N2CC(c3nn(CC(=O)N4CCC(F)(F)CC4)c4ccccc34)C2)c(F)cn1 [Compound E-257, 2-{3-[1-(2-amino-5-fluoropyridine-4-carbonyl)azetidin-3-yl]-1H-indazol-1-yl}-1-(4,4-difluoropiperidin-1-yl)ethan-1-one]"
8.22,8.34,"C[C@H](N(C)C(=O)Cn1nc(C2CN(C(=O)c3cc(N)ncc3F)C2)c2ccccc21)C(F)(F)F [Compound E-261, 2-{3-[1-(2-amino-5-fluoropyridine-4-carbonyl)azetidin-3-yl]-1H-indazol-1-yl}-N-methyl-N-[(2S)-1,1,1-trifluoropropan-2-yl]acetamide]"
7.70,8.03,"C[C@@H](N(C)C(=O)Cn1nc(C2CN(C(=O)c3cc(N)ncc3F)C2)c2ccccc21)C(F)(F)F [Compound E-262, 2-{3-[1-(2-amino-5-fluoropyridine-4-carbonyl)azetidin-3-yl]-1H-indazol-1-yl}-N-methyl-N-[(2R)-1,1,1-trifluoropropan-2-yl]acetamide]"
